This note sets out measurements from patent US9499543B2, “Polymorph forms” (RaQualia Pharma Inc., priority 2013, dated 2016).

Data set [1] can be described thus: Photostability / storage stability study. In kind it is physicochemical. On the procedure:
Photostability samples are stored in open dishes with quartz glass covers and a second set of 25° C./60% RH, and 40° C./75% RH samples which are stored in open round amber glass bottles covered with gauze.

Data set [2] can be described thus: Hygroscopicity study by dynamic vapor sorption (DVS) analysis. In kind it is physicochemical. As to conditions: under 40%, 80%, and 90% relative humidity (RH) at 25 °C, comparing with compound prepared in EXAMPLE 2. On the procedure:
Hygroscopicity study by dynamic vapor sorption analysis (DVS)
Hygroscopicity study is performed using Surface Measurement Systems DVS-1. The sample is placed on a microbalance in the instrument and the weight change during the sorption/desorption cycle at 25° C. is monitored. One of the sorption/desorption programs consists of a sorption scan from 0 to 95% relative humidity (RH) and a desorption scan from 95 to 10% RH. The other consists of a sorption scan from 40 to 95% RH and desorption scan from 95 to 0% RH, followed by a second sorption scan from 0 to 40% RH. Both programs are carried out at 5% RH increments and the sample is allowed to equilibrate for 360 minutes or until equilibration had been attained at each step. At the end of the DVS experiment the sample is measured by PXRD.

In the case of `CN1N=C2CCN(C(=O)[C@@H](COCc3ccccc3)NC(=O)C(C)(C)N)C[C@@]2(Cc2ccccc2)C1=O.O=C(O)C(O)C(O)C(=O)O` [Polymorph Form I, 2-amino-N-[2-(3a-(R)-benzyl-2-methyl-3-oxo-2,3,3a,4,6,7-hexahydro-pyrazolo[4,3-c]pyridin-5-yl)-1-(R)-benzyloxymethyl-2-oxo-ethyl]-isobutyramide L-tartrate Polymorph Form I], in data set [1] (any of the stability samples over 3 months), the loss in potency result was “No significant loss”. In addition, the “changes in the appearance, the X-ray diffraction patterns, and IR spectra” value in data set [1] (storage over 3 months, photostability, 25°C/60% RH and 40°C/75% RH samples) is recorded as “no significant changes”. Moreover, the moisture gain in data set [2] is on record as under 2%.
